The values below come from PubChem BioAssay (NCI).

Among the test systems are OVCAR-5 ovarian; CCRF-CEM leukemia; EKVX NSCLC; SK-OV-3 ovarian; HL-60(TB) leukemia; HOP-62 NSCLC; OVCAR-8 ovarian; IGROV1 ovarian; NCI-H522 lung; LOX IMVI melanoma; NCI-H460 lung; SF-268 CNS; SK-MEL-28 melanoma; UACC-62 melanoma; NCI-H226 lung; U251 CNS; A549 NSCLC; NCI/ADR-RES ovarian.
Common to all, as to test: NCI anticancer screen, dose series, 48 h

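All cell lines were grown in 96-well plates and treated with compound for 48 hours. TGI: concentration producing complete growth inhibition.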

For `COc1cccc(C2CC23C(=O)NC(=O)NC3=O)c1` (stereo unspecified), the TGI with OVCAR-5 ovarian, in the assay on CCRF-CEM leukemia, in the assay with EKVX NSCLC, with SK-OV-3 ovarian, with HL-60(TB) leukemia and in the assay on HOP-62 NSCLC was more than 100 µM in each case. In addition, the TGI in the assay on OVCAR-8 ovarian, in the assay with IGROV1 ovarian, in the assay with NCI-H522 lung, in the assay with LOX IMVI melanoma, with NCI-H460 lung and in the assay on SF-268 CNS was more than 100 µM in each case. Also, the TGI with SK-MEL-28 melanoma, in the assay on UACC-62 melanoma, in the assay with NCI-H226 lung, in the assay on U251 CNS and in the assay with A549 NSCLC was more than 100 µM throughout.
`CC1CN=C(N(C(=O)Nc2ccccc2)c2ccc(Cl)c(Cl)c2)S1` (stereo unspecified): the TGI is more than 100 µM in the assay on OVCAR-5 ovarian; more than 10 µM in the assay with CCRF-CEM leukemia; more than 100 µM in the assay with EKVX NSCLC; more than 100 µM in the assay with SK-OV-3 ovarian; more than 100 µM in the assay with HL-60(TB) leukemia; more than 100 µM in the assay on HOP-62 NSCLC. Besides, the TGI with OVCAR-8 ovarian is more than 100 µM; with IGROV1 ovarian, more than 100 µM; with LOX IMVI melanoma it was 93.3 µM; in the assay with NCI-H460 lung, 53.1 µM; with SF-268 CNS, more than 100 µM; with SK-MEL-28 melanoma, more than 100 µM. In addition, the TGI in the assay with U251 CNS is more than 10 µM; with A549 NSCLC it was more than 100 µM; with NCI/ADR-RES ovarian, more than 100 µM.
`Cc1ccc(Cl)c2c(=O)c3ccc(N)cc3sc12`: the TGI was more than 100 µM in the assay with OVCAR-5 ovarian; 50.4 µM in the assay on CCRF-CEM leukemia; 52.8 µM with EKVX NSCLC; 20.4 µM in the assay with HL-60(TB) leukemia; 52.8 µM in the assay on HOP-62 NSCLC; 52.6 µM in the assay with OVCAR-8 ovarian. Besides, the TGI was 28.7 µM in the assay with IGROV1 ovarian; more than 100 µM in the assay on NCI-H460 lung; more than 100 µM with SF-268 CNS; 30.8 µM with UACC-62 melanoma; 48.4 µM in the assay on NCI-H226 lung; 85.3 µM in the assay with A549 NSCLC. This compound also displayed a TGI in the assay with NCI/ADR-RES ovarian of 35 µM.
Regarding `O=C(Cn1c(-c2ccccc2)cc2ccccc21)N1CCCC1`, the TGI in the assay on OVCAR-5 ovarian, with EKVX NSCLC, in the assay with SK-OV-3 ovarian, in the assay with HOP-62 NSCLC, with OVCAR-8 ovarian and with IGROV1 ovarian was more than 100 µM in each case. Also, the TGI with NCI-H522 lung, in the assay with LOX IMVI melanoma, in the assay with NCI-H460 lung, in the assay with SF-268 CNS, in the assay on UACC-62 melanoma and in the assay on NCI-H226 lung was more than 100 µM each time. The TGI in the assay with A549 NSCLC and with NCI/ADR-RES ovarian was more than 100 µM throughout.
Turning to `Cc1nn(C(=O)CC(=O)Nc2ccc(Cl)cc2)c(C)c1N=Nc1ccccc1C(=O)O`, the TGI in the assay on OVCAR-5 ovarian, with CCRF-CEM leukemia, in the assay with EKVX NSCLC, in the assay with SK-OV-3 ovarian, with HL-60(TB) leukemia and in the assay on HOP-62 NSCLC was more than 100 µM each time. Moreover, the TGI in the assay on OVCAR-8 ovarian, in the assay with IGROV1 ovarian, in the assay with NCI-H522 lung, in the assay with LOX IMVI melanoma, with NCI-H460 lung and with SF-268 CNS was more than 100 µM each time. Besides, the TGI in the assay on SK-MEL-28 melanoma, in the assay with UACC-62 melanoma, in the assay on U251 CNS and in the assay with A549 NSCLC was more than 100 µM throughout.
On to `CC1CN=C(N(C(=O)Nc2ccc(Cl)c(Cl)c2)c2ccccc2)S1` (stereo unspecified), for which the TGI in the assay with OVCAR-5 ovarian, in the assay with CCRF-CEM leukemia, in the assay with EKVX NSCLC, in the assay with HOP-62 NSCLC, with OVCAR-8 ovarian and in the assay with IGROV1 ovarian was more than 100 µM in each case. The TGI in the assay on LOX IMVI melanoma, in the assay on NCI-H460 lung, with SF-268 CNS, with SK-MEL-28 melanoma, with U251 CNS and with A549 NSCLC was more than 100 µM throughout. In the assay on NCI/ADR-RES ovarian, this compound gave a TGI of more than 100 µM.
`C=C(C)C1CCC2(C)CC1c1c(c(C)cc3c1[nH]c1ccccc13)O2` (stereo unspecified): the TGI in the assay on OVCAR-5 ovarian, in the assay with CCRF-CEM leukemia, in the assay on SK-OV-3 ovarian, in the assay with HL-60(TB) leukemia, in the assay on HOP-62 NSCLC and in the assay on OVCAR-8 ovarian was more than 25 µM throughout. The TGI in the assay on IGROV1 ovarian, in the assay with NCI-H522 lung, in the assay with LOX IMVI melanoma, in the assay on NCI-H460 lung, in the assay on SF-268 CNS and in the assay with SK-MEL-28 melanoma was more than 25 µM in each case. Besides, the TGI with UACC-62 melanoma, in the assay with NCI-H226 lung, in the assay with U251 CNS and in the assay on A549 NSCLC was more than 25 µM throughout.
As to `Cc1ccc(NC(=O)CCc2nnc(N)o2)cc1`, the TGI with OVCAR-5 ovarian was more than 100 µM; in the assay with CCRF-CEM leukemia, more than 100 µM; in the assay on EKVX NSCLC, more than 100 µM; in the assay on SK-OV-3 ovarian, more than 100 µM; in the assay on HL-60(TB) leukemia it was more than 91.7 µM; in the assay on HOP-62 NSCLC, more than 100 µM. The TGI with OVCAR-8 ovarian, in the assay with IGROV1 ovarian, in the assay with NCI-H522 lung, with LOX IMVI melanoma, in the assay on NCI-H460 lung and in the assay with SF-268 CNS was more than 100 µM each time. The TGI in the assay on SK-MEL-28 melanoma, in the assay on UACC-62 melanoma, with NCI-H226 lung, in the assay on U251 CNS and in the assay on A549 NSCLC was more than 100 µM throughout.
